A word on the inhibition: it is the share of the control response that was lost under treatment.

Our source for the inhibition values is patent US11225480B2, “Malic enzyme inhibitors” (SUN PHARMA ADVANCED RESEARCH COMPANY LTD, priority 2019, dated 2022).

Assay type in all cases: biochemical
In test [1] the target is T1, human ME3 enzyme (Homo sapiens, UniProt Q16798).
T1 sequence (Q16798 1-604): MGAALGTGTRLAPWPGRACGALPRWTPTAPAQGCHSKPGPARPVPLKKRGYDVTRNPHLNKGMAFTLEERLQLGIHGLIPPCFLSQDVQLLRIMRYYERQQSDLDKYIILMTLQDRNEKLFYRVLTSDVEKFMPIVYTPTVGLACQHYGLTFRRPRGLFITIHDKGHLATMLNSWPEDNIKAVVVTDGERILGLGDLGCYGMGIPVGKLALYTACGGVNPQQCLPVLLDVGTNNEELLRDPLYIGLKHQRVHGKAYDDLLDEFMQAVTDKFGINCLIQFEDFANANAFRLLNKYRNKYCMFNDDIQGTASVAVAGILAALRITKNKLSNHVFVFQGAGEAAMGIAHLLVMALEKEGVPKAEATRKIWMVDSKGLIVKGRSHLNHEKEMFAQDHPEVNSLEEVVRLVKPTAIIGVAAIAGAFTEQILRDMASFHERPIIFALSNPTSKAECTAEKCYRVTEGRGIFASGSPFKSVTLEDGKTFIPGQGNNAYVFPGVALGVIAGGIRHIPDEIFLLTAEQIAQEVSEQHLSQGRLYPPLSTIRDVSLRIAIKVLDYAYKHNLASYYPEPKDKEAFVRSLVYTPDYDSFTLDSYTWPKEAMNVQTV
In words: ME3 inhibition assay (diaphorase/resazurin coupled fluorescence). The following applies: 10 μM compound concentration; read-out: Malic Enzyme 3 % inhibition (10 μM). Summed up:
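Coupled read-out: NADPH made by human ME3 (20 nM stock) drives diaphorase conversion of resazurin (50 μM) to resorufin; buffer 50 mM Tris-HCl pH 7.5, 10 mM MnCl2, 3 mM L-malate.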

For test [2], the target named is human ME2 enzyme (Homo sapiens, UniProt P23368). In words: ME2 inhibition assay (diaphorase/resazurin coupled fluorescence). The following applies: 10 μM compound concentration; read-out: Malic Enzyme 2 % inhibition (10 μM). Here is the method:
ME2 catalyzes the oxidative decarboxylation of malate to pyruvate with conversion of the co-factor β-NAD+ to β-NADH. In the fluorescence assay, a coupled reaction is set up where in an enzyme, Diaphorase, utilizes NADH generated by ME2, to convert the dye resazurin to a fluorescent molecule resorufin. Resorufin has a characteristic fluorescence with excitation/emission at 540/600 nm (SLAS Discov., 2017 April 1:2472555217706649).
The enzyme activity inhibition assay is set up in a 200 μL final reaction volume in a 96-well plate. As per the experimental design, 2 μL of the compounds at 100× the desired concentration (10 μM) in DMSO were added to the respective wells with 178 μL of assay buffer (50 mM Tris-HCl pH 7.5, 10 mM MnCl2, 7 mM L-malate, 50 μM Resazurin and 0.025 mg/ml Diapharose). The 96-well plate was incubated on a plate shaker at room temperature for 15 minutes protected from light. The well contents were gently mixed by adding 10 μL of 60 nM human ME2 enzyme to the wells and the plate was incubated on a shaker at room temperature for 5 minutes protected from light. Suitable ‘enzyme only’ and ‘no enzyme’ controls were included in the experiment. The enzymatic reaction was started by adding 10 μL of 2 mM β-NAD+. The reaction was gently mixed and the plate was initially left on a shaker at room temperature for −7 minutes protected from light. Later, the plate was incubated without shaking at room temperature for 2 hours. At the end of 2 hours, the fluorescence of the wells was measured at excitation 540 nm and emission 600 nm. The % enzyme activity of the compounds is obtained by normalizing the data with enzyme only (100%) and no enzyme controls (0%) using GraphPad Prism software 7.04.
For orientation: The colour change of resazurin is a common sign of viable cells or microbes.

Test [3] deals with T2, human ME1 enzyme (Homo sapiens, UniProt P48163).
T2 sequence (P48163 1-572): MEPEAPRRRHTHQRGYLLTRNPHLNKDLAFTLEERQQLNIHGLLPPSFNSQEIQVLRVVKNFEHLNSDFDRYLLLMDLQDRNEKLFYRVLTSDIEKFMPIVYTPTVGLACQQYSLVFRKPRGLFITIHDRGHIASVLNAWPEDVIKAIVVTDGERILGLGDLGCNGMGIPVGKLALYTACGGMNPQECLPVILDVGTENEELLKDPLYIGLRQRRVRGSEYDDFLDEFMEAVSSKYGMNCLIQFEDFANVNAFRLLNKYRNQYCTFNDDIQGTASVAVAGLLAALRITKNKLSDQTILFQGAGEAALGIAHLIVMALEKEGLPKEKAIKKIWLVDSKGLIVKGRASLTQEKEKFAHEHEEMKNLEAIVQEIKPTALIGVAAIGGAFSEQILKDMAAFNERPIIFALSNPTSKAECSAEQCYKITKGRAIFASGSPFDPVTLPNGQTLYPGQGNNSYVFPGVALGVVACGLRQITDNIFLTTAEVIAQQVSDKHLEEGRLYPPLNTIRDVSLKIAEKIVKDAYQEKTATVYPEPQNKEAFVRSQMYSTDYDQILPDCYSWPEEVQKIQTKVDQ
Description: ME1 inhibition assay (diaphorase/resazurin coupled fluorescence). The following applies: 10 μM compound concentration; read-out: Malic Enzyme 1 % inhibition (10 μM). Here is the method:
ME1 catalyzes the oxidative decarboxylation of malate to pyruvate with conversion of the co-factor β-NADP+ to β-NADPH. In the fluorescence assay, a coupled reaction is set up where in an enzyme, Diaphorase, utilizes NADPH generated by ME1, to convert the dye resazurin to a fluorescent molecule resorufin. Resorufin has a characteristic fluorescence with excitation/emission at 540/600 nm (SLAS Discov., 2017 April 1:2472555217706649).
The enzyme activity inhibition assay is set up in a 200 μL final reaction volume in a 96-well plate. As per the experimental design, 2 μL of the compounds at 100× the desired concentration (10 μM) in DMSO were added to the respective wells with 178 μL of assay buffer (50 mM Tris-HCl pH 7.5, 10 mM MnCl2, 2 mM L-malate, 10 μM Resazurin and 0.01 mg/ml Diapharose). The 96-well plate was incubated on a plate shaker at room temperature for 15 minutes protected from light. The well contents were gently mixed by adding 10 μL of 20 nM human ME1 enzyme to the wells and the plate was incubated on a shaker at room temperature for 5 minutes protected from light. Suitable ‘enzyme only’ and ‘no enzyme’ controls were included in the experiment. The enzymatic reaction was started by adding 10 μL of 0.3 mM D-NADP+. The reaction was gently mixed and the plate was initially left on a shaker at room temperature for −7 minutes protected from light. Later, the plate was incubated without shaking at room temperature for 2 hours. At the end of 2 hours, the fluorescence of the wells was measured at excitation 540 nm and emission 600 nm. The % enzyme activity of the compounds is obtained by normalizing the data with enzyme only (100%) and no enzyme controls (0%) using GraphPad Prism software 7.04.

human ME2 enzyme, sequence (P23368 19-584): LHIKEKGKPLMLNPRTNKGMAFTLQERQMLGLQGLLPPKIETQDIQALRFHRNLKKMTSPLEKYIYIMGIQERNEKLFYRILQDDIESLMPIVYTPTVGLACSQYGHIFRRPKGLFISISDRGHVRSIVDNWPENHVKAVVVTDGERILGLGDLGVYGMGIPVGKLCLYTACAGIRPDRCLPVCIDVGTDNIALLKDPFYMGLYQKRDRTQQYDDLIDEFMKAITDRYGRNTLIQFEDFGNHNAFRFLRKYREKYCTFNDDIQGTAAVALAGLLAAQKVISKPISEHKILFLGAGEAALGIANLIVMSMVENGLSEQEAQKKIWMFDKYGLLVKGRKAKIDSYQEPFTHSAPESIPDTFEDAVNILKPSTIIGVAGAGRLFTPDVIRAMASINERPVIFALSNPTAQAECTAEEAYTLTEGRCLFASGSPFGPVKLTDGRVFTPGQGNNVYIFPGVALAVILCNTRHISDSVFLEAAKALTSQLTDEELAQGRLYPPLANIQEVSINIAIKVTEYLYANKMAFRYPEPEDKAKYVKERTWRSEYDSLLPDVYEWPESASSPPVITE

`O=C(c1c2ccccc2cc2ccccc12)N1CCN(c2ccc(O)cc2)CC1` [I.21, Anthracen-9-yl-[4-(4-hydroxy-phenyl)-piperazin-1-yl]-methanone]: the inhibition at 10 µM in test [1], in test [2] and in test [3] was more than 90% throughout.

In the case of `O=C(O)c1cccc(-c2cc(C(=O)N3CCN(c4ccc(O)cc4)CC3)ccn2)c1` [I.39, 3-[4-[4-(4-Hydroxy-phenyl)-piperazine-1-carbonyl]-2-pyridyl]-benzoic acid], the inhibition at 10 µM in test [1], in test [2] and in test [3] was more than 90% throughout.

For `O=C(C=C(c1ccccc1)c1ccccc1)N1CCN(c2ccc(O)cc2)CC1` [I.40, 1-[4-(4-hydroxyphenyl)piperazin-1-yl]-3,3-diphenylprop-2-en-1-one], the inhibition at 10 µM in test [1], in test [2] and in test [3] was more than 90% in each case.

For `O=C(O)c1cccc(-c2cc(C(=O)N3CCN(c4ccc(O)cc4)CC3)cc(N3CCOCC3)n2)c1` [I.41, 3-[4-[4-(4-Hydroxy-phenyl)-piperazine-1-carbonyl]-6-morpholino-2-pyridyl]-benzoic acid], the inhibition at 10 µM in test [1], in test [2] and in test [3] was more than 90% throughout.

Take `O=C(O)c1ccc(-c2cc(C(=O)N3CCN(c4ccc(O)cc4)CC3)cc(N3CCOCC3)n2)cc1` [I.42, 4-[4-[4-(4-Hydroxy-phenyl)-piperazine-1-carbonyl]-6-morpholino-2-pyridyl]-benzoic acid]: the inhibition at 10 µM in test [1], in test [2] and in test [3] was more than 90% each time.

With `O=C(c1c[nH]c2ccccc12)N1CCN(c2ccc(O)cn2)CC1` [I.43, [4-(5-Hydroxy-pyridin-2-yl)-piperazin-1-yl]-(1H-indol-3-yl)-methanone], the results for the inhibition at 10 µM in test [1], in test [2] and in test [3] were more than 90%, 50 to 69% and more than 90%, respectively.

Turning to `O=C(c1c2ccccc2nc2ccccc12)N1CCN(c2ccc(O)cn2)CC1` [I.44, Acridin-9-yl-[4-(5-hydroxy-pyridin-2-yl)-piperazin-1-yl]-methanone], the results for the inhibition at 10 µM in test [1], in test [2] and in test [3] were more than 90%, 50 to 69% and more than 90%, respectively.

In the case of `O=C(CCc1ccccc1)N1CCN(c2ccc(O)cn2)CC1` [I.45, 1-[4-(5-hydroxy-pyridin-2-yl)-piperazin-1-yl]-3-phenyl-propan-1-one], the inhibition at 10 µM is more than 90% in test [1], 70 to 89% in test [2] and more than 90% in test [3].

For `O=C(CCc1cccc2ccccc12)N1CCN(c2ccc(O)cc2)CC1` [I.46, 1-[4-(4-Hydroxy-phenyl)-piperazin-1-yl]-3-naphthalen-1-yl-propan-1-one], the inhibition at 10 µM in test [1], in test [2] and in test [3] was more than 90% each time.

With `O=C(c1c[nH]c2ccccc2c1=O)N1CCN(c2ccc(O)cc2)CC1` [I.47, 3-[4-(4-Hydroxy-phenyl)-piperazine-1-carbonyl]-1H-quinolin-4-one], the inhibition at 10 µM in test [1], in test [2] and in test [3] was more than 90% in each case.

For the molecule `O=C(C(c1ccccc1)c1ccccc1)N1CCN(c2ccc(O)cn2)CC1` [I.48, 1-[4-(5-Hydroxy-2-pyridyl)-piperazin-1-yl]-2,2-diphenyl-ethanone], the inhibition at 10 µM in test [1] was more than 90%; in test [2] it was 70 to 89%; in test [3] it was 70 to 89%.

Consider `O=C(Cc1ccccc1Oc1ccccc1)N1CCN(c2ccc(O)cc2)CC1` [I.49, 1-[4-(4-hydroxyphenyl)piperazin-1-yl]-2-(2-phenoxyphenyl)ethanone], for which the inhibition at 10 µM in test [1], in test [2] and in test [3] was more than 90% throughout.

Regarding `O=C(c1ccnc(N2CCCCC2)c1)N1CCN(c2ccc(O)cc2)CC1` [I.50, [4-(4-Hydroxy-phenyl)-piperazin-1-yl]-[2-(1-piperidyl)-4-pyridyl]-methanone], the inhibition at 10 µM in test [1], in test [2] and in test [3] was more than 90% in each case.

With `O=C(CCc1c[nH]c2ccccc12)N1CCN(c2ccc(O)cn2)CC1` [I.51, 1-[4-(5-Hydroxy-pyridin-2-yl)-piperazin-1-yl]-3-(1H-indol-3-yl)-propan-1-one], the values for the inhibition at 10 µM in test [1], in test [2] and in test [3] were more than 90%, 70 to 89% and 70 to 89%, respectively.

Take `Cc1cc(N2CCN(C(=O)Cc3ccccc3)CC2)ccc1O` [I.52, 1-[4-(4-Hydroxy-3-methyl-phenyl)-piperazin-1-yl]-2-phenyl-ethanone]: the inhibition at 10 µM in test [1], in test [2] and in test [3] was more than 90% in each case.

In the case of `O=C(CCc1c2ccccc2cc2ccccc12)N1CCN(c2ccc(O)cc2)CC1` [I.53, 3-Anthracen-9-yl-1-[4-(4-hydroxy-phenyl)-piperazin-1-yl]-propan-1-one], the inhibition at 10 µM in test [1], in test [2] and in test [3] was more than 90% in each case.

For `O=C(c1c[nH]c2ccccc2c1=O)N1CCN(c2ccc(O)cn2)CC1` [I.54, 3-[4-(5-Hydroxy-2-pyridyl)-piperazine-1-carbonyl]-1H-quinolin-4-one], the inhibition at 10 µM in test [1] was more than 90%; in test [2], 50 to 69%; in test [3], 70 to 89%.
